Assay results as given in patent US20220233641A1, “Methods and Compositions for Treating Obesity and/or Skin Disorders” (THE TRUSTEES OF THE UNIVERSITY OF PENNSYLVANIA, priority 2019, published 2022).
Entries after “also recorded” stand apart in the source; their conditions may differ.

Assays:
[1] = tested on: HFD-fed TSLP-R KO mice; experiment: Topical MC903 in HFD-fed TSLP-R KO mice; assay type: in vivo, mouse; conditions: HFD-fed TSLP-R-deficient mice, topical MC903 2 nmol/ear, 12 weeks
Description: (§1) TSLP-R KO mice were fed a normal chow (NC) or 40% high fat diet (HFD) for 12 weeks. The mice were topically treated with either vehicle (EtOH) or MC903 (2 nmol/ear) on both ears Monday, Wednesday, and Friday on odd weeks. Mice were weighed on the indicated time points and plotted as mean±SEM. Glucose tolerance test was performed on Week 12 by injection of glucose and subsequent measurements of blood glucose levels. AUC analysis is performed on the GTT curves. * indicates statistical significance of p<0.05 by Student t-test.
as §1, with “TSLP-R knock out (KO) mice were” for “TSLP-R KO mice were”, “tolerance test (GTT) was performed” for “tolerance test was performed”

[2] = tested on: human individual; experiment: Topical MC903 application to arm or leg of human individuals (remote effects on sebum, dry skin, scalp hair, dry eye); assay type: in vivo
Description: MC903 was applied topically to the right arm of an individual daily. Sebum measurements were obtained by cleaning the forehead with ethanol wipe, resting for 15 minutes, and placing sebutape on the forehead for 2 minutes. Black dots on the blue and white background of the tape indicates the presence of sebum at each day post treatment.
MC903 was applied topically to the right arm of an individual daily. Photographs of the right hand before and after 3 or 5 days post treatment is shown. The individual was treated for 14 days total with no need of hand cream at least 9 weeks even after treatment was discontinued. In certain embodiments, secretion of sebum lasts after cessation of treatment.
MC903 was applied topically to the left arm daily of an individual for 14 days (1st treatment). Treatment was stopped for 4 weeks and restarted for an additional 2 weeks (2nd treatment) on the right arm daily. Photographs of the scalp before, 2 weeks after 1st treatment, 11 days after 2nd treatment, and 8 weeks after 2nd treatment are shown.[…].
MC903 was applied topically to the left arm daily of an individual and the right leg another individual for 14 days (1st treatment). The presence of dry eye symptoms was subjectively evaluated in the two individuals before and after treatment. The response is plotted in a bar graph.

[3] = tested on: HFD-fed mice; experiment: Topical MC903 in HFD-fed WT C57BL/6 mice (weight gain, eWAT, GTT, HOMA-IR, liver histology); assay type: in vivo, mouse
Description: WT C57BL/6 mice were fed a normal chow (NC) or 40% high fat diet (HFD) for 12 weeks. The mice were topically treated with either vehicle (EtOH) or MC903 (2 nmol/ear) on both ears Monday, Wednesday, and Friday on odd weeks. (FIG. 1A) Mice were weighed weekly and % change from baseline is plotted as mean±SEM. (FIG. 1B) The mice were euthanized on Week 12 and the epididymal fat pads were weighed. (FIG. 1C, FIG. 1D) Glucose tolerance test was performed on Week 12 by injection of glucose and subsequent measurements of blood glucose levels. HOMA-IR analysis was performed after an overnight fast at Week 12. *, **, and *** indicate statistical significance of p<0.05, p<0.01, and p<0.001, respectively by Student t-test or ANOVA.
WT C57BL/6 mice were fed a normal chow (NC) or 40% high fat diet (HFD) for 12 weeks. The mice were topically treated with either vehicle (EtOH) or MC903 (2 nmol/ear) on both ears Monday, Wednesday, and Friday on odd weeks. Shown are representative histological images of the liver on Week 12.
Wildtype C57BL/6 mice were fed a normal chow (NC) or 40% high fat diet (HFD) for 12 weeks. The mice were topically treated with either vehicle (EtOH) or MC903 (2 nmol/ear) on both ears Monday, Wednesday, and Friday on odd weeks. (A) Mice were weighed weekly and % change from baseline is plotted as mean±SEM. (B) The mice were euthanized on Week 12 and the epididymal fat pads were weighed. (C, D) Glucose tolerance test (GTT) was performed on Week 12 by injection of glucose and subsequent measurements of blood glucose levels. Homeostatic model assessment-insulin resistance (HOMA-IR) analysis was performed after an overnight fast at Week 12. *, **, and *** indicate statistical significance of p<0.05, p<0.01, and p<0.001, respectively by Student t-test or ANOVA.
C57BL/6 mice were fed a normal chow (NC) or 40% high fat diet (HFD) for 12 weeks. The mice were topically treated with either vehicle (EtOH) or MC903 (2 nmol/ear) on both ears Monday, Wednesday, and Friday on odd weeks. Shown are representative histological images of the liver on Week 12.

[4] = HFD-fed mice, Week 12, vs vehicle

C=C1/C(=C\C=C2/CCC[C@]3(C)[C@@H]([C@H](C)/C=C/[C@@H](O)C4CC4)CC[C@@H]23)C[C@@H](O)C[C@@H]1O [MC903, 26,27-cyclo-22-ene-1α,24S-dihydroxyvitamin D3]
weight gain and metabolic parameters [1]: does not prevent weight gain or improve metabolic parameters | time with no need of hand cream after treatment was discontinued ([2]; human individual treated for 14 days total): at least 9 weeks | scalp hair growth ([2]; human individual, 2 cycles of 2-week topical MC903 on the arm): substantial recovery of hair growth; also recorded: remotely promotes scalp hair growth | sebum on the forehead (sebutape) ([2]; one human individual, MC903 topically on the arm daily): increasing amounts of sebum on the forehead; also recorded: remotely increases sebum secretion | eczematous dry skin of a hand ([2]; one human individual, MC903 topically on the right arm daily): marked improvement; also recorded: remotely cures dry skin of the hand | dry eye symptoms (subjective) ([2]; two human individuals, MC903 on arm or leg daily for 14 days): improvement in dry eye symptoms; also recorded: remotely improves dry eye symptoms | weight gain ([3]; HFD-fed WT C57BL/6 mice, topical MC903 2 nmol/ear, 12 weeks, vs vehicle (EtOH)): significantly reduced weight gain; also recorded: significantly less weight gain; also recorded: prevention weight gain | epididymal white adipose tissue (eWAT) weight [3, 4]: significantly decreased | fat deposition in the liver (histology) [3, 4]: markedly reduced; also recorded: appeared very similar to the tissue of mice fed with normal chow; also recorded: prevention of HFD-induced hepatosteatosis | metabolic parameters (GTT and HOMA-IR) [3, 4]: improved metabolic parameters; also recorded: improvement in metabolic parameters
